Laboratory results: patent publication US5047419A, “Photodynamic therapy of glioma or mammary carcinoma using seleno- or telluropyrylium salts” (Eastman Kodak Company, priority 1988, dated 1991)

Assays:
[1] = Quantum efficiency of singlet oxygen generation in air-saturated solution; type: physicochemical
Description: (§1) The ability of the dyes of this invention to function as a cancer-treating agent is in part a reflection of the ability of the dye to generate singlet oxygen in air-saturated solution. (As used herein, "air-saturated solution" means a solution of dye exposed to the atmosphere.) In studying a variety of chalcogenopyrylium dyes, only those dyes containing a selenium or tellurium atom show any appreciable generation of singlet oxygen upon irradiation. Fortuitously, selenopyrylium and telluropyrylium dyes have absorption maxima that are shifted to the red relative to their pyrylium and thiopyrylium analogues. That is, not only are these dyes effective in killing cancer cells because of their high quantum efficiency, but also they generally operate at the most preferred wavelengths, namely those of 700 nm or longer. Table III contains examples of chalcogenopyrylium dyes, their quantum efficiencies for singlet oxygen generation, and their absorption maxima. (In this Table, Ph=Phenyl, Me=Methyl, and t-Bu=tertiary butyl.)

[2] = Absorption maxima (λmax) of chalcogenopyrylium dyes; type: physicochemical
Description: as §1

[3] = Distribution of Dye 1 in organ tissues of glioma (RT-1) bearing rats; type: in vivo, rat
Protocol: Dye 1 of Table 1 was delivered to glioma sites in rat brains, such sites having been achieved by implanting RT-1 rat glioma cancer cells into the brains of twenty-four 400 g rats. Stock solutions of Dye 1 at 1 mM concentration were prepared by dissolving the dye in a minimal amount of 95% ethanol and diluting with phosphate buffered saline to 1 mM. RT-1 glioma cells were injected into the cortex of the rats at day 0. Treatment with the dye was done at day 12. A quantity of the stock solution sufficient to deliver 1.5 mg (2.5 μmol) of Dye 1 per rat (approximately2 mL) was delivered by femoral artery or carotid artery injection. The animals were sacrificed at the indicated times, the indicated tissues were removed, and frozen until the amount of dye was quantified. The dye content of the indicated tissues was examined spectroscopically by homogenizing the tissues, doing a lipid extraction of the homogenate, and measuring the optical density of the extract at a constant volume at the wavelength of the dye. Alternatively, a tritium labeled sample of Dye 1 was employed in the injection and the tissue homogenate was placed directly in a scintillation vial. The dye content was then measured by tritium count. […] (The values listed at times of 0.25 and 1.0 h after injection are comparative examples only, since there is either too high a concentration present in the brain, or too little in the tumor.)

RT-1 glioma cells = assay: Survival study of rats implanted with RT-1 glioma cells; type: in vivo, rat; details: for Mean Survival Time: 2.5 μmol femoral artery
Protocol: A survival study was conducted using Dye 1 with 400 g rats implanted with RT-1 glioma cells at day 0 and treated with 2.5 μmol of dye delivered by femoral artery injection on day 12. The treated animals were irradiated one hour post injection using a quartz fiber optic with a diffusion tip with the dye laser described earlier as the light source. Total irradiation energy was 50 J cm^-2 at 785 nm. Three control groups were used: untreated animals, animals treated with dye only, and animals treated with light only. [The number of rats per group were: 10 for laser and dye treatment, 6 for control (no treatment), 14 for dye only and 6 for laser only.] Mean survival time data are compiled in Table VIII.

[4] = Distribution of Dye 5 in organ tissues of rats bearing an implanted mammarian tumor; type: in vivo, rat; details: peritoneum, prep L, optical density
[5] = carotid artery, 0.33 h, prep H, tritium counts
[6] = femoral artery, 0.25 h, prep D, tritium counts
[7] = femoral artery, 0.50 h, prep D, tritium counts
[8] = femoral artery, 1.0 h, prep (L), optical density (B)
[9] = femoral artery, 1.0 h, prep D, tritium counts

In the case of `C(=C1C=C(c2ccccc2)[Te]C(c2ccccc2)=C1)c1cc(-c2ccccc2)[te+]c(-c2ccccc2)c1` [Dye 10], the “Quantum efficiency of singlet oxygen generation Φ(1O2)” value (from here on “Quantum efficiency”) ([1]; air-saturated solution) is reported as 0.08 and the “Absorption maximum λmax” value ([2]; MeOH) is reported as 760 nm.

With `CC(C)(C)C1=CC(=CC=Cc2cc(C(C)(C)C)[s+]c(C(C)(C)C)c2)C=C(C(C)(C)C)[Te]1` [Dye 3] the “Quantum efficiency” value ([1]; air-saturated solution) was 0.07 and the “Absorption maximum λmax” value ([2]; H2O) was 745 nm.

For `CC(=C1C=C(C(C)(C)C)[Te]C(C(C)(C)C)=C1)c1cc(C(C)(C)C)[te+]c(C(C)(C)C)c1` [Dye 13], the “Quantum efficiency” value ([1]; air-saturated solution) was 0.005 and the “Absorption maximum λmax” value ([2]; H2O) was 790 nm.

With `CC(C)(C)C1=CC(=CC=Cc2cc(C(C)(C)C)[o+]c(C(C)(C)C)c2)C=C(C(C)(C)C)S1.F[P-](F)(F)(F)(F)F` [C.E. 2, 2,6-Di-t-butyl-4-[3-(2,6-di-t-butyl-4H-thiopyran-4-ylidene)-1-propen-1-yl]pyrylium hexafluorophosphate, reference compound] the “Quantum efficiency” value ([1]; air-saturated solution) was no more than 0.001 and the “Absorption maximum λmax” value ([2]; H2O) was 630 nm.

In the case of `CC(C)(C)C1=CC(=C(C#N)C=Cc2cc(C(C)(C)C)[te+]c(C(C)(C)C)c2)C=C(C(C)(C)C)[Te]1` [Dye 15], the “Quantum efficiency” value ([1]; air-saturated solution) is reported as 0.08 and the “Absorption maximum λmax” value ([2]; MeOH) is reported as 790 nm.

In the case of `CC(C)(C)C1=CC(=Cc2cc(CCCCO)[te+]c(CCCCO)c2)C=C(C(C)(C)C)[Se]1` [Dye 18], the “Quantum efficiency” value ([1]; estimated) is reported as no less than 0.005 and the “Absorption maximum λmax” value ([2]; MeOH) is reported as 690 nm.

With `CC(C=Cc1cc(C(C)(C)C)[te+]c(C(C)(C)C)c1)=C1C=C(C(C)(C)C)[Se]C(C(C)(C)C)=C1` [Dye 6] the “Quantum efficiency” value ([1]; air-saturated solution) was 0.01 and the “Absorption maximum λmax” value ([2]; CH2Cl2) was 803 nm.

In the case of `CC(C)(C)C1=CC(=CC=Cc2cc(C(C)(C)C)[se+]c(C(C)(C)C)c2)C=C(C(C)(C)C)[Se]1` [Dye 2], the “Quantum efficiency” value ([1]; air-saturated solution) is reported as 0.014 and the “Absorption maximum λmax” value ([2]; H2O) is reported as 730 nm.

In the case of `CC(=CC(C)=C1C=C(C(C)(C)C)[Se]C(C(C)(C)C)=C1)c1cc(C(C)(C)C)[se+]c(C(C)(C)C)c1` [Dye 7], the “Quantum efficiency” value ([1]; air-saturated solution) is reported as 0.005 and the “Absorption maximum λmax” value ([2]; MeOH) is reported as 790 nm.

In the case of `CC(C)(C)C1=CC(=CC=Cc2cc(C(C)(C)C)[se+]c(C(C)(C)C)c2)C=C(C(C)(C)C)[Te]1.[Cl-]` [Dye 1, 2,6-Di-t-butyl-4-[3-(2,6-di-t-butyl-4H-telluropyran-4-ylidene)-1-propen-1-yl]selenopyrylium chloride], the “nmol Dye 1/g of tissue, Brain” value [3, 5] is reported as 0.9 nmol Dye 1/g of tissue, the “nmol Dye 1/g of tissue, Tumor” value [3, 5] is reported as 16.0 nmol Dye 1/g of tissue and the “nmol Dye 1/g of tissue, Liver” value ([3]; femoral artery, 0.25 h, prep (H), tritium counts) is reported as 5.4 nmol Dye 1/g of tissue. The “nmol Dye 1/g of tissue, Brain” value [3, 6] was 46 nmol Dye 1/g of tissue, the “nmol Dye 1/g of tissue, Heart” value [3, 6] was 7.4 nmol Dye 1/g of tissue and the “nmol Dye 1/g of tissue, Liver” value [3, 6] was 9.1 nmol Dye 1/g of tissue. For the same molecule, the “nmol Dye 1/g of tissue, Tumor” value [3, 6] was 45 nmol Dye 1/g of tissue, the “nmol Dye 1/g of tissue, Brain” value [3, 7] was 18.0 nmol Dye 1/g of tissue and the “nmol Dye 1/g of tissue, Liver” value [3, 7] was 17.0 nmol Dye 1/g of tissue. For the same molecule, the “nmol Dye 1/g of tissue, Tumor” value [3, 7] was 32.0 nmol Dye 1/g of tissue, the “nmol Dye 1/g of tissue, Heart” value [3, 8] was 1.1 nmol Dye 1/g of tissue and the “nmol Dye 1/g of tissue, Liver” value [3, 8] was 3.3 nmol Dye 1/g of tissue. The “nmol Dye 1/g of tissue, Brain” value [3, 9] was 4.7 nmol Dye 1/g of tissue, the “nmol Dye 1/g of tissue, Heart” value [3, 9] was 1.3 nmol Dye 1/g of tissue and the “nmol Dye 1/g of tissue, Liver” value [3, 9] was 13.2 nmol Dye 1/g of tissue. For the same molecule, the “passage of the blood-brain barrier” value ([3]; rat, arterial injection) was “appears to pass the blood-brain barrier”, the “concentrations of the dye in the tumor mass” value ([3]; short time periods following injection) was “reasonably high concentrations” and the “survival relative to animals in the control groups” value (RT-1 glioma cells; Dye 1 and light) was “prolonged survival”. The “Proportion of Animals Surviving” value (RT-1 glioma cells; Dye Only, day ≥15) was 0.50, the “Proportion of Animals Surviving” value (RT-1 glioma cells; Dye Only, day ≥19) was 0.43 and the “Proportion of Animals Surviving” value (RT-1 glioma cells; Dye Only, day ≥22) was 0.43. For the same molecule, the “Proportion of Animals Surviving” value (RT-1 glioma cells; Dye Only, day ≥26) was 0.43, the “Proportion of Animals Surviving” value (RT-1 glioma cells; Dye Only, day ≥33) was 0.43 and the “Proportion of Animals Surviving” value (RT-1 glioma cells; Dye Only, day ≥40) was 0.43. The “Proportion of Animals Surviving” value (RT-1 glioma cells; Dye Only, day ≥47) was 0.00, the “Mean Survival Time” value (RT-1 glioma cells; Dye Only) was 27.9 days and the “Proportion of Animals Surviving” value (RT-1 glioma cells; Laser + Dye, day ≥15) was 0.70. The “Proportion of Animals Surviving” value (RT-1 glioma cells; Laser + Dye, day ≥19) was 0.70, the “Proportion of Animals Surviving” value (RT-1 glioma cells; Laser + Dye, day ≥22) was 0.70 and the “Proportion of Animals Surviving” value (RT-1 glioma cells; Laser + Dye, day ≥26) was 0.60. The “Proportion of Animals Surviving” value (RT-1 glioma cells; Laser + Dye, day ≥33) was 0.50, the “Proportion of Animals Surviving” value (RT-1 glioma cells; Laser + Dye, day ≥40) was 0.50 and the “Proportion of Animals Surviving” value (RT-1 glioma cells; Laser + Dye, day ≥47) was 0.30. For the same molecule, the “Mean Survival Time” value (RT-1 glioma cells; Laser + Dye, 50 J cm^-2 at 785 nm) was 32.8 days and the animals still alive (RT-1 glioma cells; fully treated (laser + dye), from day 47 on) was 30%.

For `CC(=C1C=C(c2ccccc2)[Te]C(c2ccccc2)=C1)c1cc(-c2ccccc2)[te+]c(-c2ccccc2)c1` [Dye 11], the “Quantum efficiency” value ([1]; air-saturated solution) was 0.01 and the “Absorption maximum λmax” value ([2]; CH2Cl2) was 843 nm.

In the case of `CC(C)(C)C1=CC(=CC=Cc2cc(C(C)(C)C)[s+]c(C(C)(C)C)c2)C=C(C(C)(C)C)[Se]1` [Dye 8], the “Quantum efficiency” value ([1]; air-saturated solution) is reported as 0.008 and the “Absorption maximum λmax” value ([2]; H2O) is reported as 700 nm.

With `CC(C)(C)C1=CC(=CC=Cc2cc(C(C)(C)C)[o+]c(C(C)(C)C)c2)C=C(C(C)(C)C)[Te]1.[O-][Cl+3]([O-])([O-])[O-]` [Dye 5, 2,6-Di-t-butyl-4-[3-(2,6-di-t-butyl-4H-telluropyran-4-ylidene)-1-propen-1-yl]pyrylium perchlorate] the “nmol Dye 1/g of tissue, Heart” value ([4]; 2 h) was 1.3 nmol Dye 1/g of tissue, the “nmol Dye 1/g of tissue, Kidney” value ([4]; 2 h) was ≤ 0.5 nmol Dye 1/g of tissue and the “nmol Dye 1/g of tissue, Liver” value ([4]; 2 h) was 4.1 nmol Dye 1/g of tissue. For the same molecule, the “nmol Dye 1/g of tissue, Tumor” value ([4]; 2 h) was 5.5 nmol Dye 1/g of tissue, the “nmol Dye 1/g of tissue, Heart” value ([4]; 4 h) was ≤ 0.5 nmol Dye 1/g of tissue and the “nmol Dye 1/g of tissue, Kidney” value ([4]; 4 h) was ≤ 0.5 nmol Dye 1/g of tissue. The “nmol Dye 1/g of tissue, Liver” value ([4]; 4 h) was 3.8 nmol Dye 1/g of tissue and the “nmol Dye 1/g of tissue, Tumor” value ([4]; 4 h) was 3.3 nmol Dye 1/g of tissue.

For `CC(C)(C)C1=CC(=CC=Cc2cc(C(C)(C)C)[s+]c(C(C)(C)C)c2)C=C(C(C)(C)C)S1.F[P-](F)(F)(F)(F)F` [C.E. 1, 2,6-Di-t-butyl-4-[3-(2,6-di-t-butyl-4H-thiopyran-4-ylidene)-1-propen-1-yl]thiopyrylium hexafluorophosphate, reference compound], the “Quantum efficiency” value ([1]; air-saturated solution) was no more than 0.001 and the “Absorption maximum λmax” value ([2]; H2O) was 660 nm.
